# In ChEMBL document CHEMBL1201862, “PubChem BioAssay data set” (2004):
#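 Results reflect a 48-hour exposure of cells in 96-well plates to compound at five concentrations. GI50 = concentration required for 50% inhibition of growth.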 Active and inactive are the calls of the source. Cut-off read from the data, not from the text of the source: active = GI50 up to about 1.1 µM and inactive = higher.
# Key:
# Experiment in all cases: growth of human tumour cells (NCI), 48 h
# DMS-114 = test system: DMS-114
# 786-0 = test system: 786-0
# SF-539 = test system: SF-539
# SF-268 = test system: SF-268
# NCI-H23 = test system: NCI-H23
# NCI-H460 = test system: NCI-H460
# HOP-18 = test system: HOP-18
# OVCAR-8 = test system: OVCAR-8
# DMS-273 = test system: DMS-273
# UACC-257 = test system: UACC-257
# K562 = test system: K562
# Malme-3M = test system: Malme-3M
# NCI-H226 = test system: NCI-H226
# RPMI-8226 = test system: RPMI-8226
# NCI-H522 = test system: NCI-H522
# M14 = test system: M14
# XF498 = test system: XF498
# KM-20L2 = test system: KM-20L2
# HOP-62 = test system: HOP-62
# HOP-92 = test system: HOP-92
# SK-OV-3 = test system: SK-OV-3
# HCT-15 = test system: HCT-15
# LOX IMVI = test system: LOX IMVI
# SN12C = test system: SN12C
# DLD-1 = test system: DLD-1
# M19-MEL = test system: M19-MEL
# LXFL 529 = test system: LXFL 529
# SNB-75 = test system: SNB-75
# SF-295 = test system: SF-295
# IGROV-1 = test system: IGROV-1
# RXF 393 = test system: RXF 393
# SK-MEL-2 = test system: SK-MEL-2
# OVCAR-5 = test system: OVCAR-5
# HT-29 = test system: HT-29
# OVCAR-4 = test system: OVCAR-4
# HL-60 = test system: HL-60
# MOLT-4 = test system: MOLT-4
# ACHN = test system: ACHN
# RXF 631 = test system: RXF 631
# TK-10 = test system: TK-10
# SW-620 = test system: SW-620
# U-251 = test system: U-251
# COLO 205 = test system: COLO 205
# UACC-62 = test system: UACC-62
# A549 = test system: A549
# SNB-19 = test system: SNB-19
# UO-31 = test system: UO-31
# HCT-116 = test system: HCT-116
# CCRF-CEM = test system: CCRF-CEM
# A498 = test system: A498
# EKVX = test system: EKVX
# OVCAR-3 = test system: OVCAR-3
# SK-MEL-28 = test system: SK-MEL-28
# KM12 = test system: KM12
# SK-MEL-5 = test system: SK-MEL-5
# HCC 2998 = test system: HCC 2998
# CAKI-1 = test system: CAKI-1
structure (smiles),measurement,setting,value
CCC1(CC)C(=O)NC(=S)N=C1N,GI50,DMS-114,> 100 µM (inactive)
same,GI50,786-0,> 100 µM (inactive)
same,GI50,SF-539,> 100 µM (inactive)
same,GI50,SF-268,> 100 µM (inactive)
same,GI50,NCI-H23,> 100 µM (inactive)
same,GI50,NCI-H460,> 100 µM (inactive)
same,GI50,HOP-18,> 100 µM (inactive)
same,GI50,OVCAR-8,> 100 µM (inactive)
same,GI50,DMS-273,> 100 µM (inactive)
same,GI50,UACC-257,> 100 µM (inactive)
same,GI50,K562,> 100 µM (inactive)
same,GI50,Malme-3M,> 100 µM (inactive)
same,GI50,NCI-H226,> 100 µM (inactive)
same,GI50,RPMI-8226,> 100 µM (inactive)
same,GI50,NCI-H522,> 100 µM (inactive)
same,GI50,M14,> 100 µM (inactive)
same,GI50,XF498,> 100 µM (inactive)
same,GI50,KM-20L2,> 100 µM (inactive)
same,GI50,HOP-62,> 100 µM (inactive)
same,GI50,HOP-92,> 100 µM (inactive)
same,GI50,SK-OV-3,> 100 µM (inactive)
same,GI50,HCT-15,> 100 µM
same,GI50,LOX IMVI,> 100 µM (inactive)
same,GI50,SN12C,> 100 µM (inactive)
same,GI50,DLD-1,> 100 µM (inactive)
same,GI50,M19-MEL,> 100 µM (inactive)
same,GI50,LXFL 529,> 100 µM (inactive)
same,GI50,SNB-75,57 µM (inactive)
same,GI50,SF-295,> 100 µM (inactive)
same,GI50,IGROV-1,> 100 µM (inactive)
same,GI50,RXF 393,> 100 µM (inactive)
same,GI50,SK-MEL-2,> 100 µM (inactive)
same,GI50,OVCAR-5,> 100 µM (inactive)
same,GI50,HT-29,> 100 µM (inactive)
same,GI50,OVCAR-4,> 100 µM (inactive)
same,GI50,HL-60,> 100 µM (inactive)
same,GI50,MOLT-4,> 100 µM (inactive)
same,GI50,ACHN,> 100 µM (inactive)
same,GI50,RXF 631,> 100 µM (inactive)
same,GI50,TK-10,> 100 µM (inactive)
same,GI50,SW-620,> 100 µM (inactive)
same,GI50,U-251,> 100 µM (inactive)
same,GI50,COLO 205,> 100 µM (inactive)
same,GI50,UACC-62,> 100 µM (inactive)
same,GI50,A549,> 100 µM (inactive)
same,GI50,SNB-19,> 100 µM (inactive)
same,GI50,UO-31,> 100 µM (inactive)
same,GI50,HCT-116,> 100 µM (inactive)
same,GI50,CCRF-CEM,> 100 µM (inactive)
same,GI50,A498,> 100 µM (inactive)
same,GI50,EKVX,> 100 µM (inactive)
same,GI50,OVCAR-3,> 100 µM (inactive)
same,GI50,SK-MEL-28,> 100 µM (inactive)
COc1ccc(C(=O)Nc2ccc(S(=O)(=O)NCC(=O)O)cc2)cc1,GI50,786-0,> 100 µM (inactive)
same,GI50,SF-539,> 100 µM (inactive)
same,GI50,SF-268,> 100 µM (inactive)
same,GI50,NCI-H23,> 100 µM (inactive)
same,GI50,NCI-H460,> 100 µM (inactive)
same,GI50,HOP-18,> 100 µM (inactive)
same,GI50,OVCAR-8,> 100 µM (inactive)
same,GI50,DMS-273,> 100 µM (inactive)
same,GI50,UACC-257,> 100 µM (inactive)
same,GI50,K562,> 100 µM (inactive)
same,GI50,Malme-3M,> 100 µM (inactive)
same,GI50,KM12,> 100 µM (inactive)
same,GI50,SK-MEL-5,> 100 µM (inactive)
same,GI50,RPMI-8226,> 100 µM (inactive)
same,GI50,NCI-H522,> 100 µM (inactive)
same,GI50,M14,> 100 µM (inactive)
same,GI50,XF498,> 100 µM (inactive)
same,GI50,KM-20L2,> 100 µM (inactive)
same,GI50,HOP-92,> 100 µM (inactive)
same,GI50,SK-OV-3,> 100 µM (inactive)
same,GI50,HCT-15,> 100 µM
same,GI50,LOX IMVI,> 100 µM (inactive)
same,GI50,SN12C,> 100 µM (inactive)
same,GI50,DLD-1,> 100 µM (inactive)
same,GI50,M19-MEL,> 100 µM (inactive)
same,GI50,LXFL 529,> 100 µM (inactive)
same,GI50,SNB-75,> 100 µM (inactive)
same,GI50,HCC 2998,> 100 µM (inactive)
same,GI50,SF-295,> 100 µM (inactive)
same,GI50,IGROV-1,> 100 µM (inactive)
same,GI50,RXF 393,> 100 µM (inactive)
same,GI50,SK-MEL-2,> 100 µM (inactive)
same,GI50,OVCAR-5,> 100 µM (inactive)
same,GI50,HT-29,> 100 µM (inactive)
same,GI50,OVCAR-4,> 100 µM (inactive)
same,GI50,HL-60,> 100 µM (inactive)
same,GI50,MOLT-4,> 100 µM (inactive)
same,GI50,ACHN,> 100 µM (inactive)
same,GI50,RXF 631,> 100 µM (inactive)
same,GI50,TK-10,> 100 µM (inactive)
same,GI50,SW-620,> 100 µM (inactive)
same,GI50,U-251,> 100 µM (inactive)
same,GI50,COLO 205,> 100 µM (inactive)
same,GI50,UACC-62,> 100 µM (inactive)
same,GI50,A549,> 100 µM (inactive)
same,GI50,SNB-19,> 100 µM (inactive)
same,GI50,UO-31,> 100 µM (inactive)
same,GI50,CAKI-1,> 100 µM (inactive)
same,GI50,CCRF-CEM,> 100 µM (inactive)
same,GI50,A498,> 100 µM (inactive)
same,GI50,EKVX,> 100 µM (inactive)
same,GI50,OVCAR-3,> 100 µM (inactive)
same,GI50,SK-MEL-28,> 100 µM (inactive)
